“And” between values parts separate entries of the source, which are not always exact repeats. Equal entries are not always repeated.
`Cc1ccc(NC(=O)Nc2ccc(C)cc2)cc1` [1,3-bis(4-tolyl)urea] showed a melting point of 266 °C. With `Clc1cccc(Cl)c1` [1,3-dichlorobenzene] the melting point was -25 °C. In the case of `Cn1ccc(=O)n(C)c1=O` [1,3-dimethyluracil], the melting point was 121 °C. `O=C1CC(=O)c2ccccc21` [1,3-indanedione] showed a melting point of 130 °C. Compound `OCCCO` [1,3-propanediol] has a melting point of -26 °C. `C1CSCCSCCNCCSCCSCCN1` [1,4,10,13-tetrathia-7,16-diazacyclooctadecane] showed a melting point of 130 °C. `OCCCCO` [1,4-Butanediol] gave a melting point of 20.1 °C. In the case of `Brc1ccc(Br)cc1` [1,4-Dibromobenzene], the melting point was 88 °C. Compound `Clc1ccc(Cl)cc1` [1,4-Dichlorobenzene] has a melting point of 55 °C. `O=C1Cc2ccccc2CO1` [1,4-Dihydro-3H-isochromen-3-on] gave a melting point of 83 °C. In the case of `COc1ccc(OC)cc1` [1,4-Dimethoxybenzene], the melting point was 58 °C. In the case of `O=Cc1ccc2c(c1)OCCO2` [1,4-benzodioxane-6-carboxaldehyde], the melting point was 50 °C. For `c1ccc(CCc2ccc(CCc3ccccc3)cc2)cc1` [1,4-bis(2-phenylethyl)benzene], the melting point was 89 °C. In the case of `Cc1nc(-c2ccc(-c3nc(C)c(-c4ccccc4)o3)cc2)oc1-c1ccccc1` [1,4-bis(4-methyl-5-phenyloxazol-2-yl)benzene], the melting point was 234 °C. In the case of `BrC(Br)c1ccc(C(Br)Br)cc1` [1,4-bis(dibromomethyl)benzene], the melting point was 168 °C. Compound `OCCCCO` [1,4-butanediol] has a melting point of 20 °C. With `Brc1ccc(Br)cc1` [1,4-dibromobenzene] the melting point was 87.3 °C and 87 °C and 88 °C. With `ClCCCCCl` [1,4-dichlorobutane] the melting point was -38 °C. `O=C(CCCc1ccccc1)c1ccccc1` [1,4-diphenyl-1-butanone] showed a melting point of 55 °C. `O=C1C=CC(=O)c2ccccc21` [1,4-naphthoquinone] showed a melting point of 122 °C. In the case of `BrCCCCCBr` [1,5-dibromopentane], the melting point was -40 °C. Compound `ClCCCCCCl` [1,5-dichloropentane] has a melting point of -72 °C. In the case of `O=[N+]([O-])c1cc([N+](=O)[O-])c(F)cc1F` [1,5-difluoro-2,4-dinitrobenzene], the melting point was 74 °C. Compound `O=C=NCCCCCCN=C=O` [1,6-Diisocyanatohexane] has a melting point of -55 °C. Compound `BrCCCCCCBr` [1,6-dibromohexane] has a melting point of -2 °C. `N#CCCCCCCC#N` [1,6-dicyanohexane] gave a melting point of -3 °C. Compound `CC12CCC(CC1=O)C2(C)C` (stereo not given) [1,7,7-Trimethylbicyclo[2.2.1]heptan-2-one] has a melting point of 177 °C. `Oc1ccc2cccc(O)c2c1` [1,7-dihydroxynaphthalene] gave a melting point of 182 °C. Compound `BrCCCCCCCCBr` [1,8-dibromooctane] has a melting point of 16 °C. With `O=C(/C=C/C=C/c1ccccc1)/C=C/C=C/c1ccccc1` [1,9-diphenyl-1,3,6,8-nonatetraen-5-one] the melting point was 142 °C. Work on `CC(=O)c1ccccc1[N+](=O)[O-]` [1-(2-Nitrophenyl)ethanone] yielded a melting point of 23 °C. For `Cc1ccccc1CNC(=S)Nc1ccccc1` [1-(2-methylbenzyl)-3-phenylthiourea], the melting point was 163 °C. Work on `Cc1ccc(N2C(=O)C=CC2=O)cc1Cl` [1-(3-Chloro-4-methylphenyl)-1H-pyrrole-2,5-dione] yielded a melting point of 140 °C. `CC(=O)c1cccc([N+](=O)[O-])c1` [1-(3-Nitrophenyl)ethanone] gave a melting point of 81 °C. For `O=[N+]([O-])c1ccc(OCC(O)CO)cc1` (stereo not given) [1-(4-nitrophenyl)glycerol], the melting point was 96 °C. `NCc1ccc2c(Br)cccc2c1` [1-(5-bromonaphthalen-2-yl)methanamine] gave a melting point of 112 °C. For `COc1ccc2cc(C(C)O)ccc2c1` (stereo not given) [1-(6-methoxy-2-naphthyl)ethanol], the melting point was 112 °C. `CC(N1CCOCC1)S(=O)(=O)O` (stereo not given) [1-(Morpholin-4-yl)ethanesulfonic acid] showed a melting point of 243 °C. `CCCCCOCCCCC` [1-(Pentyloxy)pentane] showed a melting point of -69 °C. Work on `Cc1ccccc1N1CCNCC1` [1-(o-tolyl)piperazine] yielded a melting point of 47 °C.
